ChEMBL document CHEMBL3864164, “II. Discovery of a novel series of CXCR3 antagonists with a beta amino acid core” (Bioorg Med Chem Lett, 2016)
≈ marks a conversion by molar mass, not a printed value.

Legend:
[1] = Drug degradation in solid phase after few months; format: physicochemical; settings: read-out: Drug degradation
[2] = Solubility of the compound at pH 1.1 to 7.4; format: physicochemical; settings: buffer
[3] = Absolute oral bioavailability in Balb/c mouse at 10 mg/kg; format: ADME, organism-based; settings: in vivo

| SMILES | degraded [1] | solubility [2] | bioavailability [3] |
| --- | --- | --- | --- |
| Cl.O=C(O)C[C@@H](c1ccc(Cl)c(F)c1)N(Cc1ccc(OCCN2C(=O)CCC2=O)c(Cl)c1)CC1CC1 | 5 to 7% | 3000 µM | 35% |
| CCCN(Cc1ccc(OCCN2C(=O)CCC2=O)c(C)c1)C1c2ccc(Cl)cc2CC1C(=O)O (configuration not stated) | 5 to 7% | 3000 µM (≈ 1500 µg/mL) |  |
| COc1cc(CN(CC(C)C)C(CC(=O)O)c2ccc3c(c2)CCO3)ccc1OCCN1C(=O)CCC1=O (configuration not stated) | 5 to 7% | 3000 µM (≈ 1570 µg/mL) |  |
| Cl.O=C(O)C[C@@H](c1ccc(Cl)c(Cl)c1)N(Cc1ccc(OCCN2C(=O)CCC2=O)c(F)c1)CC1CC1 | 5 to 7% | 3000 µM | 64% |
| CCN(Cc1ccc(OCCn2c(=O)ccn(C)c2=O)c(OC)c1)C(CC(=O)O)c1ccc(Cl)cc1 (configuration not stated) | 5 to 7% | 3000 µM (≈ 1550 µg/mL) |  |
| COc1cc(CN(CC(C)C)[C@@H](CC(=O)O)c2ccc(Cl)cc2)ccc1OCCn1c(=O)ccn(C)c1=O | 5 to 7% | 3000 µM (≈ 1630 µg/mL) |  |
| CCCCN(Cc1ccc(OCCn2c(=O)ccn(C)c2=O)c(OC)c1)C(CC(=O)O)c1ccc(Cl)cc1 (configuration not stated) | 5 to 7% | 3000 µM (≈ 1630 µg/mL) |  |
| Cc1cc(CN(CC(C)C)C(CC(=O)O)c2ccc(Cl)c(F)c2)ccc1OCCN1C(=O)CCC1=O (configuration not stated) | 5 to 7% | 3000 µM (≈ 1560 µg/mL) |  |
| Cc1cc(CN(Cc2ccc(F)cc2)C(CC(=O)O)c2ccc(Cl)cc2)ccc1OCCN1C(=O)CCC1=O.Cl (configuration not stated) | 5 to 7% | 3000 µM |  |
| Cc1cc(CN(CC(C)C)C(CC(=O)O)c2ccc(Cl)c(Cl)c2)ccc1OCCN1C(=O)CCC1=O (configuration not stated) | 5 to 7% | 3000 µM (≈ 1610 µg/mL) |  |
| COc1cc(CN(CC2CC2)C(CC(=O)O)c2ccc3c(c2)CCO3)ccc1OCCn1c(=O)ccn(C)c1=O (configuration not stated) | 5 to 7% | 3000 µM (≈ 1650 µg/mL) |  |
| Cl.O=C(O)C[C@@H](c1ccc(Cl)c(F)c1)N(Cc1ccc(OCCN2C(=O)CCC2=O)c(F)c1)CC1CC1 | 5 to 7% | 3000 µM | 70% |
| Cc1cc(CN(CC(C)C)[C@@H](CC(=O)O)c2ccc(Cl)c(F)c2)ccc1OCCN1C(=O)CCC1=O.Cl | 5 to 7% | 3000 µM |  |
| COc1cc(CN(CC(C)C)C(CC(=O)O)c2ccc3c(c2)CCO3)ccc1OCCn1c(=O)ccn(C)c1=O (configuration not stated) | 5 to 7% | 3000 µM (≈ 1650 µg/mL) |  |
| Cc1cc(CN(CC(C)C)C(CC(=O)O)c2ccc3c(c2)CCO3)ccc1OCCN1C(=O)CCC1=O (configuration not stated) | 5 to 7% | 3000 µM (≈ 1530 µg/mL) |  |
| CCCN(Cc1ccc(OCCn2c(=O)ccn(C)c2=O)c(OC)c1)C(CC(=O)O)c1ccc2c(c1)CCO2 (configuration not stated) | 5 to 7% | 3000 µM (≈ 1610 µg/mL) |  |

| SMILES | degraded [1] | solubility [2] | bioavailability [3] |
| --- | --- | --- | --- |
| Cc1cc(CN(C)C(CC(=O)O)c2ccc(Cl)cc2)ccc1OCCn1c(=O)ccn(C)c1=O (configuration not stated) | 5 to 7% | 3000 µM (≈ 1460 µg/mL) |  |
| CCN(Cc1ccc(OCCn2c(=O)ccn(C)c2=O)c(C)c1)C(CC(=O)O)c1ccc(Cl)cc1 (configuration not stated) | 5 to 7% | 3000 µM (≈ 1500 µg/mL) |  |
| COc1cc(CN(CC(C)C)[C@H](CC(=O)O)c2ccc(Cl)cc2)ccc1OCCn1c(=O)ccn(C)c1=O | 5 to 7% | 3000 µM (≈ 1630 µg/mL) |  |
| Cc1cc(CN(C2CCC2)C(CC(=O)O)c2ccc(Cl)cc2)ccc1OCCN1C(=O)CCC1=O (configuration not stated) | 5 to 7% | 3000 µM (≈ 1500 µg/mL) |  |
| COc1cc(CN(CC2CC2)C(CC(=O)O)c2ccc(Cl)cc2)ccc1OCCn1c(=O)ccn(C)c1=O (configuration not stated) | 5 to 7% | 3000 µM (≈ 1630 µg/mL) |  |
| Cc1cc(CN(CC2CCCCC2)C(CC(=O)O)c2ccc(Cl)cc2)ccc1OCCN1C(=O)CCC1=O (configuration not stated) | 5 to 7% | 3000 µM (≈ 1620 µg/mL) |  |
| COc1cc(CN(CC2CCCC2)[C@@H](CC(=O)O)c2ccc(Cl)c(F)c2)ccc1OCCN1C(=O)CCC1=O | 5 to 7% | 3000 µM (≈ 1680 µg/mL) |  |
| Cc1cc(CN(C2CCC2)C(CC(=O)O)c2ccc(Cl)cc2)ccc1OCCn1c(=O)ccn(C)c1=O (configuration not stated) | 5 to 7% | 3000 µM (≈ 1580 µg/mL) |  |
| COc1cc(CN(C2CCC2)C(CC(=O)O)c2ccc(Cl)cc2)ccc1OCCn1c(=O)ccn(C)c1=O (configuration not stated) | 5 to 7% | 3000 µM (≈ 1630 µg/mL) |  |
| Cc1cc(CN(CC2CCCC2)[C@@H](CC(=O)O)c2ccc(Cl)c(F)c2)ccc1OCCN1C(=O)CCC1=O.Cl | 5 to 7% | 3000 µM |  |
| CCCCN(Cc1ccc(OCCn2c(=O)ccn(C)c2=O)c(OC)c1)C(CC(=O)O)c1ccc2c(c1)CCO2 (configuration not stated) | 5 to 7% | 3000 µM (≈ 1650 µg/mL) |  |
| COc1cc(CN(CC(C)C)C(CC(=O)O)c2ccc(Cl)cc2)ccc1OCCn1c(=O)ccn(C)c1=O (configuration not stated) | 5 to 7% | 3000 µM (≈ 1630 µg/mL) |  |
| Cc1cc(CN(CC2CC2)C(CC(=O)O)c2ccc(Cl)cc2)ccc1OCCn1c(=O)ccn(C)c1=O (configuration not stated) | 5 to 7% | 3000 µM (≈ 1580 µg/mL) |  |
| Cc1cc(CN(CC(C)C)C(CC(=O)O)c2ccc(Cl)cc2Cl)ccc1OCCN1C(=O)CCC1=O (configuration not stated) | 5 to 7% | 3000 µM (≈ 1610 µg/mL) |  |
| CCCN(Cc1ccc(OCCn2c(=O)ccn(C)c2=O)c(C)c1)C(CC(=O)O)c1ccc(Cl)cc1 (configuration not stated) | 5 to 7% | 3000 µM (≈ 1540 µg/mL) |  |
| CCCN(Cc1ccc(OCCN2C(=O)CCC2=O)c(C)c1)C(CC(=O)O)c1ccc(Cl)s1.Cl (configuration not stated) | 5 to 7% | 3000 µM |  |

Now from value to molecule:

| degraded [1] | solubility [2] | bioavailability [3] | SMILES |
| --- | --- | --- | --- |
| 5 to 7% | 3000 µM (≈ 1590 µg/mL) |  | CCCN(Cc1ccc(OCCn2c(=O)ccn(C)c2=O)c(OC)c1)C(CC(=O)O)c1ccc(Cl)cc1 (configuration not stated) |
| 5 to 7% | 3000 µM (≈ 1500 µg/mL) |  | Cc1cc(CN(CC2CC2)C(CC(=O)O)c2ccc(Cl)cc2)ccc1OCCN1C(=O)CCC1=O (configuration not stated) |
| 5 to 7% | 3000 µM (≈ 1620 µg/mL) |  | CCc1cc(CN(CC2CCCC2)[C@@H](CC(=O)O)c2ccc(Cl)cc2)ccc1OCCN1C(=O)CCC1=O |
| 5 to 7% | 3000 µM (≈ 1500 µg/mL) |  | Cc1cc(CN(CC(C)C)[C@@H](CC(=O)O)c2ccc(Cl)cc2)ccc1OCCN1C(=O)CCC1=O |
| 5 to 7% | 3000 µM (≈ 1460 µg/mL) |  | CCCN(Cc1ccc(OCCN2C(=O)CCC2=O)c(C)c1)[C@H](CC(=O)O)c1ccc(Cl)cc1 |
| 5 to 7% | 3000 µM (≈ 1550 µg/mL) |  | CCCN(Cc1ccc(OCCN2C(=O)CCC2=O)c(OC)c1)C(CC)c1ccc(Cl)c(C(=O)O)c1 (configuration not stated) |
| 5 to 7% | 3000 µM (≈ 1550 µg/mL) |  | COc1cc(CN(CC(C)C)C(CC(=O)O)c2ccc(Cl)cc2)ccc1OCCN1C(=O)CCC1=O (configuration not stated) |
| 5 to 7% | 3000 µM (≈ 1540 µg/mL) |  | C[C@@H](c1ccc(Cl)cc1)N(Cc1ccc(OCCN2C(=O)CCC2=O)c(C(=O)O)c1)CC1CCCC1 |
| 5 to 7% | 3000 µM (≈ 1500 µg/mL) |  | Cc1cc(CN(CC(C)C)C(CC(=O)O)c2ccc(Cl)cc2)ccc1OCCN1C(=O)CCC1=O (configuration not stated) |
| 5 to 7% | 3000 µM (≈ 1580 µg/mL) | 14% | Cc1cc(CN(CC2CCCC2)[C@@H](CC(=O)O)c2ccc(Cl)cc2)ccc1OCCN1C(=O)CCC1=O |
| 5 to 7% | 3000 µM (≈ 1650 µg/mL) |  | COc1cc(CN(CC(C)C)C(CC(=O)O)c2ccc(Cl)cc2Cl)ccc1OCCN1C(=O)CCC1=O (configuration not stated) |
| 5 to 7% | 3000 µM (≈ 1420 µg/mL) |  | CCN(Cc1ccc(OCCN2C(=O)CCC2=O)c(C)c1)C(CC(=O)O)c1ccc(Cl)cc1 (configuration not stated) |
| 5 to 7% | 3000 µM (≈ 1610 µg/mL) |  | COc1cc(CN(CC(C)C)C(CC(=O)O)c2ccc(Cl)c(F)c2)ccc1OCCN1C(=O)CCC1=O (configuration not stated) |
| 5 to 7% | 3000 µM (≈ 1540 µg/mL) |  | CCCN(Cc1ccc(OCCN2C(=O)CCC2=O)c(C)c1)C(c1ccc(Cl)cc1)C1(C(=O)O)CC1 (configuration not stated) |
| 5 to 7% | 3000 µM (≈ 1500 µg/mL) |  | CCCCN(Cc1ccc(OCCN2C(=O)CCC2=O)c(C)c1)C(CC(=O)O)c1ccc(Cl)cc1 (configuration not stated) |
| 5 to 7% | 3000 µM (≈ 1460 µg/mL) |  | CCCN(Cc1ccc(OCCN2C(=O)CCC2=O)c(C)c1)C(CC(=O)O)c1ccc(Cl)cc1 (configuration not stated) |
| 5 to 7% | 3000 µM (≈ 1470 µg/mL) |  | CCCN(Cc1ccc(OCCN2C(=O)CCC2=O)c(OC)c1)C(C(=O)O)c1ccc(Cl)cc1 (configuration not stated) |
| 5 to 7% | 3000 µM (≈ 1460 µg/mL) |  | CCCN(Cc1ccc(OCCN2C(=O)CCC2=O)c(C)c1)[C@@H](CC(=O)O)c1ccc(Cl)cc1 |
| 5 to 7% | 3000 µM (≈ 1650 µg/mL) |  | COc1cc(CN(CC(C)C)C(CC(=O)O)c2ccc(Cl)c(Cl)c2)ccc1OCCN1C(=O)CCC1=O (configuration not stated) |
| 5 to 7% | 3000 µM (≈ 1500 µg/mL) |  | Cc1cc(CN(CC2CC2)[C@@H](CC(=O)O)c2ccc(Cl)cc2)ccc1OCCN1C(=O)CCC1=O |
| 5 to 7% | 3000 µM (≈ 1620 µg/mL) |  | Cc1cc(CN(CCC(F)(F)F)C(CC(=O)O)c2ccc(Cl)cc2)ccc1OCCN1C(=O)CCC1=O (configuration not stated) |
| 5 to 7% | 3000 µM (≈ 1580 µg/mL) |  | Cc1cc(CN(CC2CCCC2)C(CC(=O)O)c2ccc(Cl)cc2)ccc1OCCN1C(=O)CCC1=O (configuration not stated) |
| 5 to 7% | 3000 µM (≈ 1550 µg/mL) |  | CCCN(Cc1ccc(OCCN2C(=O)CCC2=O)c(OC)c1)C(c1ccc(Cl)cc1)C(C)C(=O)O (configuration not stated) |
| 5 to 7% | 3000 µM | 5.4% | COc1cc(CN(CC2CC2)[C@@H](CC(=O)O)c2ccc(Cl)c(F)c2)ccc1OCCN1C(=O)CCC1=O.Cl |
